# Data published in US11999697B2, “Methods and compositions for inhibition of dihydroorotate dehydrogenase” (OHIO STATE INNOVATION FOUNDATION, priority 2018, dated 2024).
# Like-named read-outs stand apart in the source and are kept apart here.
# Columns and labels:
# HL-60 = test: MTS cell proliferation assay, HL-60; format: cell-based; details: Homo sapiens, 96 hours
# Experimental: (§1) Triplicate wells were set up for each condition.
# (§2) The assays were carried out in a blinded fashion.
# OCI-AML3 = test: MTS cell proliferation assay, OCI-AML3; format: cell-based; details: Homo sapiens
# Experimental: as §1, §2
# [1] = tested on: kinases (more than 480 kinase assays); test: DiscoverX KINOMEscan panel; format: binding; details: 1 μM and 10 μM
# Source text: A representative disclosed compound, Cpd3, was screened for potential noncovalent binding interaction with kinases by screening a comprehensive panel in the DiscoverX KINOMEscan® platform (Eurofins DiscoverX Corporation, Fremont, Calif. 94538; e.g., see also Herman, S. E. M., et al., Clin Cancer Res; 23(11) Jun. 1, 2017). Panel allows for screening against more than 480 kinase assays including clinically relevant mutants, lipid, atypical, and pathogen kinases. The screening system provides for thermodynamic affinity data (as opposed to IC50s), and allows for detection of multiple inhibitor types, including type I, type II, and allosteric. […] It is notable that the upper limit tested in this screen is at least 10-fold greater than the observed in vitro IC50 for activity in the assays discussed above.
# [2] = tested on: luciferase-expressing MOLM-13 cells; test: MOLM13 xenograft study, daily dosage regimen; format: in vivo, NCG mice
# Experimental: The effect of a representative disclosed compound, Cpd3, on in vivo tumor growth was assessed in a MOLM13 xenograft study was examined using a daily dosage regimen. Briefly, male NCG (NOD-Prkdc^em26Cd52//2rg^em26Cd22/NjuCrl) mice (N=12 per group) were given an intravenous injection of 1×10^4 luciferase-expressing MOLM-13 cells. As discussed above, this model is believed to be a very aggressive model of tumor growth (vehicle treated mice typically reach early removal criteria by 24-26 days post-engraftment). Briefly, NCG mice were injected with 1×10^4 MOLM13-luciferase cells (N=12 per group) and at 4 days post-engraftment (Day 0) were imaged and enrolled into one of three treatment groups: Vehicle, 25 mg/kg Cpd3 (administered daily) or 50 mg/kg Cpd3 (administered daily). […] The color scale represents the radiance (p/s/cm2/sr), related to the amount of luciferase expression and therefore disease burden. […] Survival data were calculated using Kapler Meyer analysis (vehicle vs. 25 mg/kg dosing with Cpd3 or vehicle vs. 50 mg/kg dosing with Cpd3; each p<0.001). Arrow indicates the start of treatment.
# [3] = tested on: IDH2-R140Q/Flt3-ITD spleen cells (murine AML); test: IDH2-R140Q/Flt3-ITD adoptive transfer model; format: in vivo, NCG mice
# Source text: Leukemic cells derived from a spontaneous murine model of Idh2/Flt3 AML, as reported by Shih et al (Cancer Discov. 7(5):494-505), were engrafted via adoptive transfer to generate an aggressive model of AML suitable for testing of therapeutic agents. Briefly, 6-8 week old mice harboring a heterozygous internal tandem duplication of FMS-like tyrosine kinase 3 (Flt3-ITD), a heterozygous point mutation of isocitrate dehydrogenase 2 (Idh2-R140Q) preceeded by a loxP flanked STOP codon, and Cre recombinase under the MX dynamin like GTPase 1 (Mx1) promoter were injected i.p. with polyinosinic:polycytidylic acid (poly(I:C)), activating Cre recombinase and inducing hematopoietic-specific expression of the Idh2-R140Q mutation. Spleen cells from these mice were collected after the development of lethal AML (defined by study removal criteria), typically 8-14 months post-poly(I:C) injection. 1×10^5 spleen cells from a single leukemic donor were engrafted by tail vein injection into 6 week old immune deficient NOD-Prkdc^em26Cd52//2rg^em26Cd22/NjuCrl mice (NCG; Charles River). At one week post-engraftment, animals were randomized to vehicle (5% EtOH, 10% Kolliphor EL, in PBS), enasidenib (100 mg/kg), and HOSU-3 (50 mg/kg) treatment arms and dosed by daily oral gavage. Personnel responsible for animal monitoring, dosing, and decisions regarding euthanasia were blinded to treatment arms. Survival was assessed using Kaplan-Meier analysis and p-values were determined using the log-rank test and adjusted using Holm's method.
# primary human AML cells = test: CyTOF analysis of neutrophil differentiation; format: cell-based; details: 0.5 μM, 7 days, cytokine supplemented media
# Experimental: CyTOF analysis: primary human AML cells were treated with vehicle (DMSO) or Cpd3 (0.5 μM) in the presence of cytokine supplemented media for 7 days. Cells were then incubated with 5-Iodo-2′-deoxyuridine for 10 minutes at 37° C. and fixed with Smart Tube proteomic stabilizer. 1-2×10^6 cells were washed twice with cell staining media (CSM; 0.5% BSA, 0.02% sodium azide in PBS), permeablized with cold, 0.01% saponin in PBS, barcoded using the Cell-ID 20-Plex Pd Barcoding Kit (Fluidigm), incubated for 30 minutes at room temperature, washed again 3× with CSM. Cells were then incubated with Fc blocking reagent (10 minutes at room temperature; RT) after which a cocktail of extracellular antibodies (Table 14 below) were added (50 minutes at RT, with shaking). Cells were washed with CSM, fixed for 15 minutes (10% CSM, 1.5% PFA, in PBS), and washed with CSM. Membrane permeablization was performed with ice cold methanol incubated for 20 minutes at −20° C., followed by washing 1× with PBS and 2× with CSM, and incubation with the intracellular antibody cocktail (Table 10) (50 minutes at RT, with shaking). Cells were then rinsed 2× in CSM, 1× in PBS, and incubated in PBS containing 1.5% PFA and 125 nM iridium intercalator (pentamethylcyclopentadienyl-Ir(III)-dipyridophenazine) (Fluidigm) at 4° C. […]
# [4] = tested on: AML cell lines (MOLM13, MV4-11, THP1, HL-60, and OCI-AML3); test: cells; details: read-out: IC50 range for growth arrest in AML cell lines
# Experimental: MTS assay for cell growth/viability: Mitochondrial activity was measured to determine cell proliferation using an MTS assay (tetrazolium dye 3′[4,5-dimethylthiazol-2-yl]-2,5-diphenyl-tetrazolium bromide). Metabolically active cells convert MTS tetrazolium salt into a purple formazan product that is soluble in tissue culture medium. The amount of formazan measured at 490 nm absorbance is proportional to the number of proliferating cells. […] Triplicate wells were set up for each condition. At 96 hours, the MTS reagent was added and after approximately 4 hours the plates were read in a spectrophotometer. MTS assays in primary AML cells were done in a similar manner as the cell lines with the following changes: 100K cells were plated per well, and the MTS was done in the presence of an HS5 stromal cell line to support the in vitro growth of the primary cells. Primary cells were incubated with MTS for approximately 8-12 hours (varies with the samples) before reading the absorbance.
# Cell proliferation assays were carried out using the MTS assay described herein using five AML cell lines (i.e., MOLM13, MV4-11, THP1, HL-60, and OCI-AML3) with varied genetic backgrounds. The assays were carried out in a blinded fashion.
compound,measurement,setting,value
"CCOc1ccc(-c2ccc(-c3cc(C(=O)O)c4cc(F)ccc4n3)cc2)cc1 [Cpd3, 2-(4′-ethoxy-[1,1′-biphenyl]-4-yl)-6-fluoroquinoline-4-carboxylic acid]",IC50,HL-60,0.28 µM
same,IC50,"OCI-AML3; OCI-AML-3, 96 hour, Table 6, read-out: 96 hour IC50 (nM) in OCI-AML-3 cell line",321 nM
same,IC50,"OCI-AML3; OCI-AML-3, 96 hours, read-out: IC50 (μM) at 96 hours, OCI-AML3",610 nM
same,noncovalent binding interaction with kinases,[1],no apparent interactions with the screen targets
same,Median survival time,[2]; 25 mg/kg QD PO,24 days
same,Median survival time,[2]; 50 mg/kg QD PO,27 days
same,tumor burden (luciferase expression by IVIS imaging),[2]; 25 or 50 mg/kg administered daily,able to reduce the tumor burden in the mice
same,survival compared to vehicle and enasidinib treatment groups,[3]; 50 mg/kg once daily,significant improvement in survival
same,Median survival,"[3]; daily oral gavage, Cpd3 50 mg/kg, enasidenib 100 mg/kg",42 days
same,induction of neutrophil differentiation,primary human AML cells,significant induction of neutrophil differentiation
same,IC50,[4],280 to 1100 nM
